How the values were obtained:
AMPK [1] = assay: AMPK activation assay (western blot phospho-AMPK Thr172) in C2C12; assay type: cell-based, mouse; conditions: C2C12 cells, 30 min treatment
In short: (§1)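 Mouse C2C12, mouse 3T3-L1 and human Hep G2 cells in high-glucose DMEM/10% FBS were treated with compounds for 30 min, 24 h after plating. Lysates were western-blotted for phospho-AMPK (Thr172) and total AMPK, ECL-detected, and bands quantified by densitometry.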

AMPK [2] = assay: AMPK activation assay (western blot phospho-AMPK Thr172) in 3T3-L1; assay type: cell-based, mouse; conditions: 3T3-L1 cells, 30 min treatment
In short: as §1

AMPK [3] = assay: AMPK activation assay (western blot phospho-AMPK Thr172) in Hep G2; assay type: cell-based, human; conditions: Hep G2 cells, 30 min treatment
In short: as §1

Compound | AMPK activation (% to control) C2C12 (AMPK [1]; 1 microM) | AMPK activation (% to control) C2C12 (AMPK [1]; 10 microM) | AMPK activation (% to control) C2C12 (AMPK [1]; 100 microM) | AMPK activation (% to control) C2C12 (AMPK [1]; 200 microM) | AMPK activation (% to control) 3T3-L1 (AMPK [2]; 1 microM) | AMPK activation (% to control) 3T3-L1 (AMPK [2]; 10 microM) | AMPK activation (% to control) 3T3-L1 (AMPK [2]; 100 microM) | AMPK activation (% to control) 3T3-L1 (AMPK [2]; 200 microM) | AMPK activation (% to control) Hep G2 (AMPK [3]; 1 microM) | AMPK activation (% to control) Hep G2 (AMPK [3]; 10 microM) | AMPK activation (% to control) Hep G2 (AMPK [3]; 100 microM) | AMPK activation (% to control) Hep G2 (AMPK [3]; 200 microM)
Nc1nc2[nH]cnc2c(=S)[nH]1 [Example 6-thioquanine] | 116 % to control | 141 % to control | 215 % to control | 301 % to control | 115 % to control | 132 % to control | 241 % to control | 289 % to control | 116 % to control | 133 % to control | 229 % to control | 311 % to control
O=c1[nH]c(=O)n([C@H]2C[C@H](O)[C@@H](CO)O2)cc1F [Floxuridine] | 117 % to control | 144 % to control | 231 % to control | 312 % to control | 116 % to control | 141 % to control | 222 % to control | 343 % to control | 117 % to control | 147 % to control | 206 % to control | 308 % to control
Nc1nc2nc[nH]c2c(=O)[nH]1 [Guanine] | 105 % to control | 117 % to control | 241 % to control | 304 % to control | 107 % to control | 121 % to control | 208 % to control | 312 % to control | 119 % to control | 144 % to control | 199 % to control | 335 % to control
O=c1[nH]cnc2nc[nH]c12 [Hypoxanthine] | 108 % to control | 121 % to control | 238 % to control | 309 % to control | 108 % to control | 128 % to control | 231 % to control | 335 % to control | 105 % to control | 124 % to control | 225 % to control | 341 % to control
O=c1cc[nH]c(=O)[nH]1 [Uracil] | 105 % to control | 109 % to control | 264 % to control | 358 % to control | 114 % to control | 123 % to control | 248 % to control | 372 % to control | 118 % to control | 144 % to control | 237 % to control | 359 % to control

Reference: patent publication US9938279B2, “Method for treating disease or condition susceptible to amelioration by AMPK activators and compounds of formula which are useful to activate AMP-activated protein kinase (AMPK)” (ENERGENESIS BIOMEDICAL CO., LTD, priority 2013, dated 2018)
